For the first assay, the target named is T1, HGFR (Homo sapiens, UniProt P08581).
T1 construct: purchased Upstate 14-526
T1 sequence (P08581 974-1390 limits assumed): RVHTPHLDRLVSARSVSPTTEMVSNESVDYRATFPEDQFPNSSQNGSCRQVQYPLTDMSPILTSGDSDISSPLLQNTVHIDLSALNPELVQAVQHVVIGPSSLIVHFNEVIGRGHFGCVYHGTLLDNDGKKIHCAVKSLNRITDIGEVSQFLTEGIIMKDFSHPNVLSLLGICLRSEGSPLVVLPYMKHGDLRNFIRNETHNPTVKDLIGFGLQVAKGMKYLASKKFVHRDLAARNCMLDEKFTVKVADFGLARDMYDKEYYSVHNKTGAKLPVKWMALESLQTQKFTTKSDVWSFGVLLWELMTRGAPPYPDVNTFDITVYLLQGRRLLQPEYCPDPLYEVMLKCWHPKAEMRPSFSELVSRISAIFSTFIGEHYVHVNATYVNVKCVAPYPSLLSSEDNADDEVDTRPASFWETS
The assay can be described thus: HGFR continuous-coupled spectrophotometric assay. The note with it: Table 3, column 'Ki (μM) or I (%)': cells without % sign; read-out: Ki. The format is biochemical.
For the molecule `Cc1cc(C(=O)N2C[C@@H](C)N[C@@H](C)C2)ccc1-c1cnc(N)c(OC(C)c2c(Cl)ccc(F)c2Cl)c1` (stereo partly drawn) [Example I-553, (4-{6-Amino-5-[1-(2,6-dichloro-3-fluoro-phenyl)-ethoxy]-pyridin-3-yl)-3-methyl-phenyl)-(dimethyl-piperazin-1-yl)-methanone], the inhibitory constant (Ki) came out at 0.259 µM. Take `CC(Oc1cc(-c2ccc(C(=O)N3C[C@@H](C)N[C@@H](C)C3)c(F)c2)cnc1N)c1c(Cl)ccc(F)c1Cl` (stereo partly drawn) [Example I-551, (4-{6-Amino-5-[1-(2,6-dichloro-3-fluoro-phenyl)-ethoxy]-pyridin-3-yl}-2-fluoro-phenyl)-(dimethyl-piperazin-1-yl)-methanone]: the Ki turned out to be 0.091 µM. As for `CC(Oc1cc(-c2cncc(Br)c2)cnc1N)c1c(Cl)ccc(F)c1Cl` (stereo not drawn) [Example I-644, 5′-Bromo-5-[1-(2,6-dichloro-3-fluoro-phenyl)-ethoxy]-[3,3′]bipyridinyl-6-ylamine], the inhibitory constant (Ki) was 0.196 µM. On to `CCC(Oc1cc(-c2ccc(C(=O)N3C[C@@H](C)N[C@@H](C)C3)cc2)cnc1N)c1c(Cl)cccc1Cl` (stereo partly drawn) [Example I-648, (4-{6-Amino-5-[1-(2,6-dichloro-phenyl)-propoxy]-pyridin-3-yl}-phenyl)-(3,5-dimethyl-piperazin-1-yl)-methanone], for which the Ki is 0.553 µM. Consider `CC(Oc1cc(-c2ccc(S(=O)(=O)N(C)C)cc2)cnc1N)c1c(Cl)ccc(F)c1Cl` (stereo not drawn) [Example I-610, 4-{6-Amino-5-[1-(2,6-dichloro-3-fluoro-phenyl)-ethoxy]-pyridin-3-yl}-N,N-dimethyl-benzenesulfonamide], for which the inhibition constant (Ki) worked out at 0.069 µM.

The assay is the same for the next values; noted with them: at 1 pM; Table 6, library procedure 41; read-out: % Inhibition (percent c-MET inhibition).
Regarding `Nc1ncc(C(=O)N2CCN(CCCO)CC2)cc1OCc1c(Cl)cccc1Cl` [Example L-209], the inhibition at 1 pM was 31%. Regarding `CCCCOc1ccc(CNC(=O)c2cnc(N)c(OCc3c(Cl)cccc3Cl)c2)cc1` [Example L-304], the inhibition at 1 pM was 18%. On to `Nc1ncc(C(=O)NCCO)cc1OCc1c(Cl)cccc1Cl` [Example L-239], for which the inhibition at 1 pM was 34%.

`CN(C)c1ccc(CNC(=O)c2cnc(N)c(OCc3c(Cl)cccc3Cl)c2)cc1` [Example L-186]: the inhibition at 1 pM worked out at 30%.

For `CN1CCN(CCCNC(=O)c2cnc(N)c(OCc3c(Cl)cccc3Cl)c2)CC1` [Example L-179], the inhibition at 1 pM was determined as 24%. Take `Nc1ncc(C(=O)NCc2ccc(OC(F)(F)F)cc2)cc1OCc1c(Cl)cccc1Cl` [Example L-226]: the inhibition at 1 pM amounted to 24%. `CC(CN(C)C)NC(=O)c1cnc(N)c(OCc2c(Cl)cccc2Cl)c1` [Example L-254]: the inhibition at 1 pM turned out to be 45%.

For `Nc1ncc(C(=O)NCc2ccc(OC(F)F)cc2)cc1OCc1c(Cl)cccc1Cl` [Example L-305], the inhibition at 1 pM was 26%. Take `CS(=O)(=O)C1CCN(C(=O)c2cnc(N)c(OCc3c(Cl)cccc3Cl)c2)C1` [Example L-296]: the inhibition at 1 pM worked out at 23%. As to `Nc1ncc(C(=O)NCCN2CCN(Cc3ccccc3)CC2)cc1OCc1c(Cl)cccc1Cl` [Example L-263], the inhibition at 1 pM came to 36%.

For `Nc1ncc(C(=O)N2CCCC(N3CCOCC3)CC2)cc1OCc1c(Cl)cccc1Cl` [Example L-335], the inhibition at 1 pM was 18%. With `NC(=O)c1ccc(CC2CCN(C(=O)c3cnc(N)c(OCc4c(Cl)cccc4Cl)c3)CC2)cc1` [Example L-317], the inhibition at 1 pM was determined as 12%.

As for `CN1CCC(N(C)C(=O)c2cnc(N)c(OCc3c(Cl)cccc3Cl)c2)C1` [Example L-225], the inhibition at 1 pM is 33%. In the case of `Nc1ncc(C(=O)NCCc2ccncc2)cc1OCc1c(Cl)cccc1Cl` [Example L-240], the inhibition at 1 pM was found to be 30%. Same read-out and setting: the same measure for `Nc1ncc(C(=O)NC(CO)c2cccnc2)cc1OCc1c(Cl)cccc1Cl` [Example L-300]: 22%. On to `CCN1CCCC(NC(=O)c2cnc(N)c(OCc3c(Cl)cccc3Cl)c2)C1` [Example L-312], for which the inhibition at 1 pM turned out to be 19%.

The same assay, now with this note: at 1 pM; Table 7, library procedure 42; read-out: % Inhibition (percent c-MET inhibition).
For `COc1ccc2sc(COc3cc(-c4ccc(C(=O)N5CCC(N6CCCC6)CC5)cc4)cnc3N)cc2c1`, the inhibition at 1 pM was found to be 13%. On the same count and under the same terms, the same measure for `CCOC(=O)c1nc(COc2cc(-c3ccc(C(=O)N4CCC(N5CCCC5)CC4)cc3)cnc2N)no1`: 8%; for `COc1ccccc1-c1nc(COc2cc(-c3ccc(C(=O)N4CCC(N5CCCC5)CC4)cc3)cnc2N)no1`: 8%. Take `Nc1ncc(-c2ccc(C(=O)N3CCC(N4CCCC4)CC3)cc2)cc1OCc1ccc(-c2cnc(Br)nc2)cc1`: the inhibition at 1 pM came out at 33%.

With `CCc1ccn2cc(COc3cc(-c4ccc(C(=O)N5CCC(N6CCCC6)CC5)cc4)cnc3N)nc2c1`, the inhibition at 1 pM stood at 9%.

Consider `CCN1CCCC1CNC(=O)c1ccc(COc2cc(-c3ccc(C(=O)N4CCC(N5CCCC5)CC4)cc3)cnc2N)cc1` (stereo not drawn), for which the inhibition at 1 pM stood at 18%. As to `Nc1ncc(-c2ccc(C(=O)N3CCC(N4CCCC4)CC3)cc2)cc1OCc1ccc(C(=O)NCc2ccccn2)cc1`, the inhibition at 1 pM is 7%.

Consider `Nc1ncc(-c2ccc(C(=O)N3CCC(N4CCCC4)CC3)cc2)cc1OCc1ccc(C(=O)NCCCN2CCCC2=O)cc1`, for which the inhibition at 1 pM was found to be 11%. Consider `CS(=O)(=O)c1ccc(COc2cc(-c3ccc(C(=O)N4CCC(N5CCCC5)CC4)cc3)cnc2N)cc1`, for which the inhibition at 1 pM was found to be 11%.

With `Nc1ncc(-c2ccc(C(=O)N3CCC(N4CCCC4)CC3)cc2)cc1OCc1ccc(S(=O)(=O)N2CCOCC2)cc1`, the inhibition at 1 pM is 14%. Regarding `Nc1ncc(-c2ccc(C(=O)N3CCC(N4CCCC4)CC3)cc2)cc1OCc1cn2cccnc2n1`, the inhibition at 1 pM was found to be 16%. As to `Nc1ncc(-c2ccc(C(=O)N3CCC(N4CCCC4)CC3)cc2)cc1OCc1ncccn1`, the inhibition at 1 pM was determined as 9%. For the molecule `Cc1oc(-c2cccc(F)c2)nc1COc1cc(-c2ccc(C(=O)N3CCC(N4CCCC4)CC3)cc2)cnc1N`, the inhibition at 1 pM is 8%. Turning to `Cc1cnccc1COc1cc(-c2ccc(C(=O)N3CCC(N4CCCC4)CC3)cc2)cnc1N`, the inhibition at 1 pM amounted to 11%.

The same assay, now with this note: at 50 nM; Table 5, library procedure 40; read-out: % inhibition (percent c-MET inhibition).
As to `CC(Oc1cc(-c2ccc(C(=O)NC3CCN(Cc4ccccc4)CC3)cc2)cnc1N)c1c(Cl)ccc(F)c1Cl` [Example L-4], the inhibition at 0.05 µM is 47%. As to `CC(Oc1cc(-c2ccc(C(=O)N3CCC(N(C)C)C3)cc2)cnc1N)c1c(Cl)ccc(F)c1Cl` [Example L-123], the inhibition at 0.05 µM was 80%. Still for that read-out and setting: as for `CC(Oc1cc(-c2ccc(C(=O)N(C)CC#N)cc2)cnc1N)c1c(Cl)ccc(F)c1Cl` [Example L-99], the figure is 83%; as for `Cc1ccnc(NC(=O)c2ccc(-c3cnc(N)c(OC(C)c4c(Cl)ccc(F)c4Cl)c3)cc2)c1` [Example L-131], 61%. For `CC(Oc1cc(-c2ccc(C(=O)N3CCN(CCN(C)C)CC3)cc2)cnc1N)c1c(Cl)ccc(F)c1Cl` [Example L-90], the inhibition at 0.05 µM was found to be 85%. For `CCOCCNC(=O)c1ccc(-c2cnc(N)c(OC(C)c3c(Cl)ccc(F)c3Cl)c2)cc1` [Example L-120], the inhibition at 0.05 µM was found to be 63%.

Staying with this assay, now noted: at 1 μM; Table 8, library procedure 43; read-out: % Inhibition (percent c-MET inhibition).
For `CC1CN(C(=O)c2ccc(-c3cnc(N)c(OCc4noc(-c5cccc(C(F)(F)F)c5)n4)c3)cc2)CC(C)N1` (stereo not drawn), the inhibition at 1 µM is 30%. Regarding `CCOC(=O)c1nc(COc2cc(-c3ccc(C(=O)N4CC(C)NC(C)C4)cc3)cnc2N)no1` (stereo not drawn), the inhibition at 1 µM was 13%. Same read-out and setting: the same measure for `Cc1cc(COc2cc(-c3ccc(C(=O)N4CC(C)NC(C)C4)cc3)cnc2N)ccc1F` (stereo not drawn): 16%.

`CC1CN(C(=O)c2ccc(-c3cnc(N)c(OCc4ccccc4OC(F)(F)F)c3)cc2)CC(C)N1` (stereo not drawn): the inhibition at 1 µM worked out at 20%.

For the molecule `CC1CN(C(=O)c2ccc(-c3cnc(N)c(OCc4nc(-c5ccccc5)nn4C)c3)cc2)CC(C)N1` (stereo not drawn), the inhibition at 1 µM worked out at 13%. Take `Cc1ccc(F)c(COc2cc(-c3ccc(C(=O)N4CC(C)NC(C)C4)cc3)cnc2N)c1F` (stereo not drawn): the inhibition at 1 µM turned out to be 35%.

In the case of `CC1CN(C(=O)c2ccc(-c3cnc(N)c(OCc4cc(F)ccc4C(F)(F)F)c3)cc2)CC(C)N1` (stereo not drawn), the inhibition at 1 µM came to 17%. For `CC1CN(C(=O)c2ccc(-c3cnc(N)c(OCc4ccc(C(F)(F)F)cc4C(F)(F)F)c3)cc2)CC(C)N1` (stereo not drawn), the inhibition at 1 µM was 22%.

In the case of `CC1CN(C(=O)c2ccc(-c3cnc(N)c(OCc4ccc(Cl)c(Cl)c4)c3)cc2)CC(C)N1` (stereo not drawn), the inhibition at 1 µM came to 29%. Same read-out and setting: the same measure for `CC1CN(C(=O)c2ccc(-c3cnc(N)c(OCc4ccc(S(=O)(=O)N5CCOCC5)cc4)c3)cc2)CC(C)N1` (stereo not drawn): 13%; for `CC(C)Cc1noc(COc2cc(-c3ccc(C(=O)N4CC(C)NC(C)C4)cc3)cnc2N)n1` (stereo not drawn): 14%. Still for that read-out and setting: as for `Cc1cc(-c2onc(C)c2COc2cc(-c3ccc(C(=O)N4CC(C)NC(C)C4)cc3)cnc2N)no1` (stereo not drawn), the figure is 25%; as for `CC1CN(C(=O)c2ccc(-c3cnc(N)c(OCc4ccc(F)c(F)c4)c3)cc2)CC(C)N1` (stereo not drawn), 14%.

Still in this assay, the particulars now being: cells prefixed Ki; read-out: Met Ki.
For the molecule `CC(Oc1cc(C#CC(C)(C)NC(=O)N2CCC[C@H]2CN2CCCC2)cnc1N)c1c(Cl)ccc(F)c1Cl` (stereo partly drawn) [Example I-435, (S)-2-Pyrrolidin-1-ylmethyl-pyrrolidine-1-carboxylic acid (3-{6-amino-5-[1-(2,6-dichloro-3-fluoro-phenyl)-ethoxy]-pyridin-3-yl}-1,1-dimethyl-prop-2-ynyl)-amide], the inhibitory constant (Ki) turned out to be 1.58 µM. `CC(Oc1cc(C#CC(C)(C)NC(=O)N2C[C@@H](C)N[C@@H](C)C2)cnc1N)c1c(Cl)ccc(F)c1Cl` (stereo partly drawn) [Example I-433, (3R,5S)-3,5-Dimethyl-piperazine-1-carboxylic acid (3-{6-amino-5-[1-(2,6-dichloro-3-fluoro-phenyl)-ethoxy]-pyridin-3-yl}-1,1-dimethyl-prop-2-ynyl)-amide]: the inhibitory constant (Ki) stood at 1.5 µM.

Consider `CC(Oc1cc(-c2cnn(CCN3CCCC3)c2)cnc1N)c1c(Cl)ccc(F)c1Cl` (stereo not drawn) [Example I-465, 3-[1-(2,6-Dichloro-3-fluoro-phenyl)-ethoxy]-5-[1-(2-pyrrolidin-1-yl-ethyl)-1H-pyrazol-4-yl]-pyridin-2-ylamine], for which the Ki turned out to be 0.34 µM.
